Measurements as given in patent publication US20010006697A1, “Composition and method for producing low cholesterol eggs” (priority 1997, published 2001).
Entries after “also recorded” stand apart in the source; their conditions may differ. Marks after values point to notes of the source that are not given here.

Key:
laying hens [1] = assay: Liver cholesterol content; settings: day 35
laying hens [2] = assay: Egg production, egg weights and yolk weights of statin-treated laying hens; assay type: in vivo, White Leghorn hens
Experimental: Hens were treated as described in Example 1. Egg yolk was weighed as outlined in Example 2.

laying hens [3] = assay: Yolk cholesterol contents of eggs from statin-treated laying hens; assay type: in vivo, White Leghorn hens; settings: for less total yolk cholesterol than control eggs: week 2, per yolk
Experimental: Agric. […] Hens were treated as described in Example 1. […] The eggs were hard-cooked, and the yolks were separated, weighed, and crumbled. […] Agric. […] Egg homogenate filtrates were analyzed for cholesterol as described in Rudel, L. L. and Morris, M. D., J. Lipid Res. 14:364-366 (1973).

[4] = test system: apolipoprotein B (apoB) mRNA; assay: Northern blot of liver mRNA: apoB; assay type: in vivo, White Leghorn hens; settings: normalized by 18S rRNA; day 35
From the text: Endocrinol. […] Endocrinol.

[5] = Liver weight of statin-treated laying hens; settings: day 35
[6] = 0.03% of diet, Overall (weeks 1-5)
[7] = 0.06% of diet, Overall (weeks 1-5)
[8] = 0.03% of diet, Week 1, listed as atorvastatin
[9] = 0.06% of diet, Week 1, listed as atorvastatin
[10] = 0.06% of diet, week 5 (maximal reduction for simvastatin, lovastatin)

- Egg weight, g (laying hens [2]; [6]): 61.3 ± 1.0^a,b (132) g
- Hen-day egg production, % (laying hens [2]; [6]): 75.4 ± 4.1^b,c (132) %
- Yolk weight, g (laying hens [2]; [6]): 16.6 ± 0.1^a (25) g
- Egg weight, g (laying hens [2]; 0.03% of diet, Week 1): 63.0 ± 0.7^a g
- Hen-day egg production, % (laying hens [2]; 0.03% of diet, Week 1): 82.9 ± 1.8^c,d %
- Yolk weight, g (laying hens [2]; 0.03% of diet, Week 1): 17.2 ± 0.3^a g
- Egg weight, g (laying hens [2]; 0.03% of diet, Week 2): 61.2 ± 0.8^c,d g
- Hen-day egg production, % (laying hens [2]; 0.03% of diet, Week 2): 68.6 ± 1.0^c %
- Yolk weight, g (laying hens [2]; 0.03% of diet, Week 2): 16.2 ± 0.3^a g
- Egg weight, g (laying hens [2]; 0.03% of diet, Week 3): 60.5 ± 0.8^c g
- Hen-day egg production, % (laying hens [2]; 0.03% of diet, Week 3): 80.0 ± 2.0^b %
- Yolk weight, g (laying hens [2]; 0.03% of diet, Week 3): 16.7 ± 0.4^a g
- Hen-day egg production, % (laying hens [2]; 0.03% of diet, Week 4): 77.1 ± 1.2^c %
- Yolk weight, g (laying hens [2]; 0.03% of diet, Week 4): 16.2 ± 0.2^b g
- Egg weight, g (laying hens [2]; 0.03% of diet, Week 5): 61.0 ± 0.7^b g
- Hen-day egg production, % (laying hens [2]; 0.03% of diet, Week 5): 77.1 ± 1.2^c,d %
- Yolk weight, g (laying hens [2]; 0.03% of diet, Week 5): 16.6 ± 0.3^a g
- Egg weight, g (laying hens [2]; [7]): 58.9 ± 0.9^b (121) g
- Hen-day egg production, % (laying hens [2]; [7]): 69.1 ± 3.5^c (121) %
- Yolk weight, g (laying hens [2]; [7]): 14.3 ± 0.2^b (25) g
- Egg weight, g (laying hens [2]; 0.06% of diet, Week 1): 63.6 ± 0.8^a g
- Hen-day egg production, % (laying hens [2]; 0.06% of diet, Week 1): 82.9 ± 1.0^c,d %
- Yolk weight, g (laying hens [2]; 0.06% of diet, Week 1): 16.1 ± 0.3^a g
- Egg weight, g (laying hens [2]; 0.06% of diet, Week 2): 59.5 ± 1.0^d g
- Hen-day egg production, % (laying hens [2]; 0.06% of diet, Week 2): 60.0 ± 1.8^d %
- Yolk weight, g (laying hens [2]; 0.06% of diet, Week 2): 13.4 ± 0.3^b g
- Egg weight, g (laying hens [2]; 0.06% of diet, Week 3): 56.9 ± 0.7^d g
- Hen-day egg production, % (laying hens [2]; 0.06% of diet, Week 3): 68.6 ± 1.8^c %
- Yolk weight, g (laying hens [2]; 0.06% of diet, Week 3): 13.9 ± 0.5^b g
- Egg weight, g (laying hens [2]; 0.06% of diet, Week 4): 56.8 ± 0.7^e g
- Hen-day egg production, % (laying hens [2]; 0.06% of diet, Week 4): 68.6 ± 1.8^d %
- Yolk weight, g (laying hens [2]; 0.06% of diet, Week 4): 13.9 ± 0.3^c g
- Egg weight, g (laying hens [2]; 0.06% of diet, Week 5): 57.8 ± 0.7^c g
- Hen-day egg production, % (laying hens [2]; 0.06% of diet, Week 5): 74.3 ± 1.0^d %
- Yolk weight, g (laying hens [2]; 0.06% of diet, Week 5): 14.2 ± 0.4^b g
- Liver Weight g ([5]; 0.03% of diet): 30.9 ± 1.2^b g
- Liver Weight g/100 g BW ([5]; 0.03% of diet): 1.82 ± 0.05^a,b g/100 g BW
- Liver Weight g ([5]; 0.06% of diet): 35.3 ± 2.3^a g
- Liver Weight g/100 g BW ([5]; 0.06% of diet): 2.02 ± 0.09^a g/100 g BW
Structure (SMILES): CC(C)c1c(C(=O)Nc2ccccc2)c(-c2ccccc2)c(-c2ccc(F)cc2)n1CC[C@@H](O)C[C@@H](O)CC(=O)O [Atorvastatin, (ΔR,δR)-2-(p-fluorophenyl)-β,δ-dihydroxy-5-isopropyl-3-phenyl-4-(phenylcarbamoyl)pyrrole-1-heptanoic acid]
- Liver Cholesterol mg/g liver (laying hens [1]; 0.03% of diet): 2.8 ± 0.05^c mg/g liver
- Liver Cholesterol mg/liver (laying hens [1]; 0.03% of diet): 87.4 ± 2.2^a mg/liver
- Liver Cholesterol mg/g liver (laying hens [1]; 0.06% of diet): 2.5 ± 0.07^d mg/g liver
- Liver Cholesterol mg/liver (laying hens [1]; 0.06% of diet): 89.7 ± 5.2^a mg/liver
- decrease in yolk weight (laying hens [2]; 0.06% of diet, Week 5): 19%
- Yolk cholesterol content, mg cholesterol/g yolk (laying hens [3]; 0.03% of diet, Week 0): 11.4 ± 0.3^a mg cholesterol/g yolk
- Yolk cholesterol content, mg cholesterol/yolk (laying hens [3]; 0.03% of diet, Week 0): 203.2 ± 7.7^a mg cholesterol/yolk
- Yolk cholesterol content, mg cholesterol/g yolk (laying hens [3]; 0.03% of diet, Week 1): 9.4 ± 0.3^c mg cholesterol/g yolk
- Yolk cholesterol content, mg cholesterol/yolk (laying hens [3]; 0.03% of diet, Week 1): 161.7 ± 5.5^b,c mg cholesterol/yolk
- Yolk cholesterol content, mg cholesterol/g yolk (laying hens [3]; [8]): 9.4 mg cholesterol/g yolk
- Yolk cholesterol content, mg cholesterol/yolk (laying hens [3]; [8]): 161.7 mg cholesterol/yolk
- Yolk cholesterol content, mg cholesterol/g yolk (laying hens [3]; 0.03% of diet, Week 2): 8.7 ± 0.2^e mg cholesterol/g yolk
- Yolk cholesterol content, mg cholesterol/g yolk (laying hens [3]; 0.03% of diet, Week 3): 8.6 ± 0.2^e mg cholesterol/g yolk
- Yolk cholesterol content, mg cholesterol/yolk (laying hens [3]; 0.03% of diet, Week 3): 143.7 ± 3.3^c mg cholesterol/yolk
- Yolk cholesterol content, mg cholesterol/g yolk (laying hens [3]; 0.03% of diet, Week 4): 8.3 ± 0.1^d mg cholesterol/g yolk
- Yolk cholesterol content, mg cholesterol/yolk (laying hens [3]; 0.03% of diet, Week 4): 134.4 ± 2.2^c mg cholesterol/yolk
- Yolk cholesterol content, mg cholesterol/g yolk (laying hens [3]; 0.03% of diet, Week 5): 8.2 ± 0.2^d mg cholesterol/g yolk
- Yolk cholesterol content, mg cholesterol/yolk (laying hens [3]; 0.03% of diet, Week 5): 137.2 ± 3.8^d mg cholesterol/yolk
- Yolk cholesterol content, mg cholesterol/yolk (laying hens [3]; 0.03% of diet, Week 5, listed as atorvastatin): 137.2 mg cholesterol/yolk
- Yolk cholesterol content, mg cholesterol/g yolk (laying hens [3]; 0.06% of diet, Week 0): 11.3 ± 0.3^a mg cholesterol/g yolk
- Yolk cholesterol content, mg cholesterol/yolk (laying hens [3]; 0.06% of diet, Week 0): 191.9 ± 7.3^a mg cholesterol/yolk
- Yolk cholesterol content, mg cholesterol/g yolk (laying hens [3]; 0.06% of diet, Week 1): 9.3 ± 0.2^c mg cholesterol/g yolk
- Yolk cholesterol content, mg cholesterol/yolk (laying hens [3]; 0.06% of diet, Week 1): 149.7 ± 3.8^c mg cholesterol/yolk
- Yolk cholesterol content, mg cholesterol/g yolk (laying hens [3]; [9]): 9.3 mg cholesterol/g yolk
- Yolk cholesterol content, mg cholesterol/yolk (laying hens [3]; [9]): 149.7 mg cholesterol/yolk
- Yolk cholesterol content, mg cholesterol/g yolk (laying hens [3]; 0.06% of diet, Week 2): 7.8 ± 0.3^f mg cholesterol/g yolk
- Yolk cholesterol content, mg cholesterol/yolk (laying hens [3]; 0.06% of diet, Week 2): 105.3 ± 4.3^d mg cholesterol/yolk
- Yolk cholesterol content, mg cholesterol/yolk (laying hens [3]; 0.06% of diet, Week 2, listed as atorvastatin): 105.3 mg cholesterol/yolk
- Yolk cholesterol content, mg cholesterol/g yolk (laying hens [3]; 0.06% of diet, Week 3): 7.5 ± 0.1^f mg cholesterol/g yolk
- Yolk cholesterol content, mg cholesterol/yolk (laying hens [3]; 0.06% of diet, Week 3): 104.0 ± 3.7^d mg cholesterol/yolk
- Yolk cholesterol content, mg cholesterol/g yolk (laying hens [3]; 0.06% of diet, Week 4): 7.5 ± 0.1^e mg cholesterol/g yolk
- Yolk cholesterol content, mg cholesterol/yolk (laying hens [3]; 0.06% of diet, Week 4): 104.2 ± 2.3^d mg cholesterol/yolk
- Yolk cholesterol content, mg cholesterol/g yolk (laying hens [3]; 0.06% of diet, Week 5): 7.6 ± 0.2^d mg cholesterol/g yolk
- yolk cholesterol reduction from control on a per yolk (egg) basis (laying hens [3]; [10]): 46%
- yolk cholesterol reduction from control per g of yolk (mg/g basis) (laying hens [3]; [10]): 35%
- less total yolk cholesterol than control eggs (laying hens [3]; high dose (0.06%)): 45%
- less total yolk cholesterol than control eggs (laying hens [3]; low dose (0.03%)): 27%
- hepatic apoB mRNA, linear contrasts (P≦0.05) [4]: atorvastatin>lovastatin; also recorded: atorvastatin>simvastatin
